Measured values reported in US11780868B1, “Homoleptic metal coordination complexes as antifungal agents” (King Abdulaziz University, priority 2023, dated 2023).

Tests used:
cytochrome c oxidase = assay: Cytochrome c oxidase activity assay; format: cell-based
Experimental: (§1) To examine the effect of C1 on the induction of cellular apoptosis in C. albicans cells, crucial apoptotic markers were observed. For this purpose, C. albicans 4251 and C. albicans 5112 cells were subjected to protoplast preparation by utilizing a method described previously by Srivastava et al. in 2020 through their research study. Briefly, cells were grown overnight and were exposed for 4 h with different concentrations of C1 (0.5×MIC and 1×MIC) and H2O2 (positive control) whereas, untreated cells were used as a negative control. Later on, the cells were washed and incubated for 10 min at room temperature in protoplast buffer-1 (1M sorbitol, 0.05M tris base, 0.01M MgCl2, 0.03M DTT, pH 7.4). The cells were spun at 1500 rpm for 5 min and the pellet was resuspended in protoplast buffer-2 (1M sorbitol, 0.05M tris base, 0.01M MgCl2, 0.001M DTT, pH 7.4) supplemented with lyticase enzyme (1 μg/mL) and incubated for 1 h at room temperature. Afterwards, the cell suspension was again centrifuged, and the pellet was resuspended and incubated for 20 min at room temperature in protoplast buffer-3 (1M sorbitol, 0.05M tris base, 0.01M MgCl2, pH 7.4). A final washing (1500 rpm for 5 min) was given to the cells and the pellet consisting of C. albicans protoplasts was resuspended in fresh PBS and was stored at 4° C. until further use.
The role of C1 in the modulating cytochrome c oxidase activity in C. albicans was investigated. The mitochondria from C. albicans 4251 and C. albicans 5112 were isolated using Yeast Mitochondria Isolation Kit—MITOISO3 (Sigma-Aldrich St. Louis, MO, U.S.A.) and then the Cytochrome c oxidase assay kit (ScienCell, Cat. No. 8278, CA, USA) was used to detect the cytochrome c oxidase activity in the cells following the manufacturer's instructions. Briefly, the C. albicans protoplasts were homogenized and the homogenate was resuspended and centrifuged in storage buffer (1×, 1 mL) at 6,500×g at 4° C. (10 min). The supernatant was discarded and resuspended in 200 μL of storage buffer (1×). The TCA Lowry method was utilized for determining the protein concentration present in the sample. Later on, the estimation of cytochrome c oxidase activity was done by preparing an assay mixture (Assay Buffer, 940 μL; n-dodecyl β-D-maltoside solution, 10 μL; mitochondrial protein, 2 μg) in a cuvette and then adding cytochrome c substrate solution (50 μL, provided in the kit) to it. Any change in absorbance was measured on a kinetic program (550 nm; every 30 seconds with an interval of 5 seconds) by using a spectrophotometer (UV-1800, Shimadzu Corporation, Japan).

C. albicans cells = assay: TUNEL assay for DNA fragmentation; format: cell-based, Candida albicans; settings: 0.5×MIC and 1×MIC, concentration dependent
Experimental: as §1, with “Afterwards, the cell suspension was again centrifuged, and the pellet was resuspended and incubated for 20 min at room temperature in protoplast buffer-3 (1M sorbitol, 0.05M tris base, 0.01M MgCl2, pH 7.4). A final washing (1500 rpm for 5 min) was given to the cells and the pellet consisting of C. albicans protoplasts was resuspended in fresh PBS and was stored at 4° C. until further use.” left out
We further performed an assay to detect the presence of DNA damage in C. albicans, an indicator of late-stage apoptosis. […] The protoplasts were again washed with PBS and all the samples were examined under a fluorescence microscope using Zeiss Laser Scanning Confocal Microscope (LSM) 780 (Carl Zeiss Microscopy, Jena, Germany). […]

C. albicans 5112 = assay: JC-10 mitochondrial membrane potential assay; format: cell-based, Candida albicans; settings: 4 h, negative control 2.92
Experimental: (§2) To examine the effect of C1 on the induction of cellular apoptosis in C. albicans cells, crucial apoptotic markers were observed. For this purpose, C. albicans 4251 and C. albicans 5112 cells were subjected to protoplast preparation by utilizing a method described previously by Srivastava et al. in 2020 through their research study. […] Later on, the cells were washed and incubated for 10 min at room temperature in protoplast buffer-1 (1M sorbitol, 0.05M tris base, 0.01M MgCl2, 0.03M DTT, pH 7.4). The cells were spun at 1500 rpm for 5 min and the pellet was resuspended in protoplast buffer-2 (1M sorbitol, 0.05M tris base, 0.01M MgCl2, 0.001M DTT, pH 7.4) supplemented with […] enzyme (1 μg/mL) and incubated for 1 h at room temperature. Afterwards, the cell suspension was again centrifuged, and the pellet was resuspended and incubated for 20 min at room temperature in protoplast buffer-3 (1M sorbitol, 0.05M tris base, 0.01M MgCl2, pH 7.4). A final washing (1500 rpm for 5 min) was given to the cells and the pellet consisting of C. albicans protoplasts was resuspended in fresh PBS and was stored at 4° C. until further use. Measurement of mitochondrial membrane potential in C. albicans was carried out and the potential of C1 in destabilising mitochondrial membrane potential (Δψm) in C. albicans was established by JC-10 mitochondrial membrane potential assay kit (Abeam, Cambridge, UK). The experiment was performed according to manufacturer instructions. 90 μL of prepared protoplast of C. albicans 4251 and C. albicans 5112 was added to a 96-well microplate (with black walls and clear bottom), followed by the addition of 50 μL/well of JC-10 dye-loading solution. The microplate was incubated for 1 hour at 37° C. in the dark. This was followed by the addition of 50 μL/well of assay buffer B. The microplate was then immediately centrifuged at 800 rpm for 2 minutes. The fluorescence intensity was monitored at an Ex/Em=490/530 nm (present in apoptotic cells, monomeric form and green fluorescence; represented as X) and 540/590 nm (present in live cells, dye aggregates and red fluorescence; represented as Y) using a SpectraMax® ID3 Multimode Plate Reader (Molecular Devices, LLC., USA). The ratio between the aggregate and monomeric forms was measured to find the change in mitochondrial membrane potential. The mitochondrial membrane depolarization is indicated by decreasing ratio values.

C. albicans 4251 = assay: JC-10 mitochondrial membrane potential assay; format: cell-based, Candida albicans; settings: 4 h, negative control 2.65
Experimental: as §2

## Brc1ccc([O][Co][O]c2ccc(Br)cc2C=Nc2ccc3c(c2)OCCO3)c(C=Nc2ccc3c(c2)OCCO3)c1 [Complex C1, [Co(L)2]]
Cytochrome c oxidase; Flz resistant strain (C. albicans 5112), 0.5×MIC
  average percent decrease in cytochrome c oxidase activity: 14.2%
Cytochrome c oxidase; Flz resistant strain (C. albicans 5112), 1×MIC
  average percent decrease in cytochrome c oxidase activity: 47.53%
Cytochrome c oxidase; Flz sensitive strain (C. albicans 4251), 0.5×MIC
  average percent decrease in cytochrome c oxidase activity: 22.61%
Cytochrome c oxidase; Flz sensitive strain (C. albicans 4251), 1×MIC
  average percent decrease in cytochrome c oxidase activity: 51.3%
C. albicans cells
  DNA fragmentation (TUNEL-positive cells): effective at inducing DNA fragmentation
C. albicans 5112; C. albicans 5112, 0.5×MIC
  average fluorescence ratio JC-10 aggregates/JC-10 monomers: 2.24
C. albicans 5112; C. albicans 5112, 1×MIC
  average fluorescence ratio JC-10 aggregates/JC-10 monomers: 1.71
C. albicans 4251; C. albicans 4251, 0.5×MIC
  average fluorescence ratio JC-10 aggregates/JC-10 monomers: 2.04
C. albicans 4251; C. albicans 4251, 1×MIC
  average fluorescence ratio JC-10 aggregates/JC-10 monomers: 1.6
